Experimental data from patent US20120183631A1, “INGREDIENT EXTRACTED FROM POUZOLZIA ZEYLANICA (L.) BENN AND ITS ANTI-ACNE FORMULA” (priority 2011, published 2012).

Tested on: endotoxin
Format: cell-based

COc1cc(/C=C/C(=O)CC(=O)/C=C/c2ccc(O)c(OC)c2)ccc1O [Curcumin]
Inhibition of endotoxin (in words): not restrained
